Article PMC6111440, “Cyclin-Dependent Kinase (CDK) Inhibitors: Structure–Activity Relationships and Insights into the CDK-2 Selectivity of 6-Substituted 2-Arylaminopurines” (Journal of Medicinal Chemistry, 2016)
Read-outs that look alike come from different tables or passages of the source. Values belong to the compound of their own block, whether it stands above or below them.

How the values were obtained:
[1] = target: T1, CDK2/A (Homo sapiens, UniProt P24941)
Experimental: (§1) Human CDK1/B was purchased from New England Biolabs or prepared as described,[46] CDK2/A2 was prepared as described,[46] CDK4/D was provided by AstraZeneca, and CDK7/H and CDK9/T were purchased from Upstate. IC50 values for CDK1/B, CDK2/A, and CDK4/D were determined as described.[23] IC50 values for CDK7/H and CDK9/H were determined according to the supplier’s instructions (Upstate).

[2] = target: T2, CDK9/T (Homo sapiens, UniProt P50750)
T2 sequence (P50750 whole entry): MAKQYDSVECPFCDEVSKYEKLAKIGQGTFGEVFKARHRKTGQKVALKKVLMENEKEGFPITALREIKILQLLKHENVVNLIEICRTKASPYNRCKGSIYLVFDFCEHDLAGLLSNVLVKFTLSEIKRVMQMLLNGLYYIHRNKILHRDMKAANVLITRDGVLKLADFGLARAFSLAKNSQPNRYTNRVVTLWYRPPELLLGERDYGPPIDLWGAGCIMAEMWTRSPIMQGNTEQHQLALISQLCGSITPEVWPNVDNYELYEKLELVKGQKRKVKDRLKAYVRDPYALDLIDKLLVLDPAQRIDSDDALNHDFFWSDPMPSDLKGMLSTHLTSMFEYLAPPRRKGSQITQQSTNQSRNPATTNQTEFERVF
T2 sequence (O60563 whole entry partner): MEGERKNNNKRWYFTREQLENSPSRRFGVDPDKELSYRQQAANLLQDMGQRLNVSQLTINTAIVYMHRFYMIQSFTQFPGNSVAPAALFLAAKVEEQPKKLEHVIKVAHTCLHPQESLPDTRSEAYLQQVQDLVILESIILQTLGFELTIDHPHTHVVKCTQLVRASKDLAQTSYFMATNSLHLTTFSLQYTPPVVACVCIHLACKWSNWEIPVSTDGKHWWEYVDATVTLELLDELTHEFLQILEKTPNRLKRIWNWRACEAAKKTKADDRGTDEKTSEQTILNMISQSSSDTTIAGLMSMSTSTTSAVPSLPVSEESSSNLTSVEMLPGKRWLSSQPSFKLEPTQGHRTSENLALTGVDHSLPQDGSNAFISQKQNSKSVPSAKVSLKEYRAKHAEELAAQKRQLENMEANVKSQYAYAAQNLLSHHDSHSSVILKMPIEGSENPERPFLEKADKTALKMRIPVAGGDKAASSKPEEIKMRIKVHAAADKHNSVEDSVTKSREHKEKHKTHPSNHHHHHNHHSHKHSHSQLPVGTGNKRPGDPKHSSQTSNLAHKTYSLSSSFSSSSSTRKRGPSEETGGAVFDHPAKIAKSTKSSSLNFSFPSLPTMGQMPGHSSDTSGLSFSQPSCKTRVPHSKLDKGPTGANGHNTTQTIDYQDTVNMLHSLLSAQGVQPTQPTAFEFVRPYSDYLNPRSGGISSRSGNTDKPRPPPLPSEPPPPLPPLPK
Experimental: as §1

[3] = target: T3, Human CDK1/B (Homo sapiens, UniProt P06493)
T3 sequence (P06493 whole entry): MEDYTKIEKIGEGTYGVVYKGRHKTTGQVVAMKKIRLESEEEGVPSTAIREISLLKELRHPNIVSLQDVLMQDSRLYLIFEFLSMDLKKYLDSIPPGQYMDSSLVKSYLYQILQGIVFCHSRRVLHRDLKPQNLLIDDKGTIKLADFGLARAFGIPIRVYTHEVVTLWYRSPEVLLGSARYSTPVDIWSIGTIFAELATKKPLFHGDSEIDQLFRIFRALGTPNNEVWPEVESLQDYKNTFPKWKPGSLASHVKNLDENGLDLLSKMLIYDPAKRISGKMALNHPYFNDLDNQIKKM
T3 sequence (P14635 whole entry partner): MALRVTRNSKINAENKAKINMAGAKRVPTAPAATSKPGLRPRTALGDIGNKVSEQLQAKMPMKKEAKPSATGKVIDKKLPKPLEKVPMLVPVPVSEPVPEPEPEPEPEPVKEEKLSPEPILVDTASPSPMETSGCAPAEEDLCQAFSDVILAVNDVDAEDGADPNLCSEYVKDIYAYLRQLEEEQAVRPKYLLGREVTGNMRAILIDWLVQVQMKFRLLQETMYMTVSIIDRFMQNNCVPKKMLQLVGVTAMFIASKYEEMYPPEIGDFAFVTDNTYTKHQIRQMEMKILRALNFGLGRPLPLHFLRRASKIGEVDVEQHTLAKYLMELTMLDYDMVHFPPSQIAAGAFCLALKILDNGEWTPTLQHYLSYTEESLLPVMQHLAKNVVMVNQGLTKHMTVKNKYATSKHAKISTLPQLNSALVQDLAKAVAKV
Experimental: as §1

[4] = target: T4, CDK7/H (Homo sapiens, UniProt P50613)
T4 sequence (P50613 whole entry): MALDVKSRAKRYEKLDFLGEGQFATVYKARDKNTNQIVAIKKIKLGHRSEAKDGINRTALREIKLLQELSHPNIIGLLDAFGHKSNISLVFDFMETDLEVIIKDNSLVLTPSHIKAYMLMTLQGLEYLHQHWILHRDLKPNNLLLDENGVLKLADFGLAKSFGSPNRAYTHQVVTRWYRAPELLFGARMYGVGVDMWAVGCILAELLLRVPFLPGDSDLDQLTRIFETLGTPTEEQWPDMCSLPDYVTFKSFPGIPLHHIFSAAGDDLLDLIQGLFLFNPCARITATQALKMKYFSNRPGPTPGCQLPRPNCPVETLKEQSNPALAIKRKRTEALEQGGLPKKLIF
T4 sequence (P51946 whole entry partner): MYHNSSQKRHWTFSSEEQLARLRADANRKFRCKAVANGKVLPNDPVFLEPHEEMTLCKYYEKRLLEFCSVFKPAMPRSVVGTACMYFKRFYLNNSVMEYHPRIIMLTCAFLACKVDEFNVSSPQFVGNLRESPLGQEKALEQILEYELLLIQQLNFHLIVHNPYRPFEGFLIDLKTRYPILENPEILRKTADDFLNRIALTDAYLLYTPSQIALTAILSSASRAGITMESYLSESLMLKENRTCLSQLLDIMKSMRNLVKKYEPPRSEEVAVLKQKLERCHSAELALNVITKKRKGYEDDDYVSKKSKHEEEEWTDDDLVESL
T4 sequence (P51948 whole entry partner): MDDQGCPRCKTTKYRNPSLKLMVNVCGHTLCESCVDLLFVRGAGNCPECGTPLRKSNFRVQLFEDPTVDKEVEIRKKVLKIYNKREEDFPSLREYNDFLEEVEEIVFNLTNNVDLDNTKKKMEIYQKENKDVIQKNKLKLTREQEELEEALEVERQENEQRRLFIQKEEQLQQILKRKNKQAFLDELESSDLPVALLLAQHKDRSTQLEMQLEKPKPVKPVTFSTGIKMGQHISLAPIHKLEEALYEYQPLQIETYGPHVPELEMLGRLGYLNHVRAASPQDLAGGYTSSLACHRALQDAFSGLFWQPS
Experimental: as §1

[5] = target: T1, CDK2/A; experiment: biochemical
Experimental: as §1

[6] = target: CDK4/D (Homo sapiens, UniProt P11802); experiment: biochemical; details: for inhibition at 100 µM: read-out: CDK4/D % inhibition at 100 μM; for inhibition at 10 µM: read-out: CDK4 Inhibition at 10 μM (%)
CDK4/D, sequence (P11802 whole entry): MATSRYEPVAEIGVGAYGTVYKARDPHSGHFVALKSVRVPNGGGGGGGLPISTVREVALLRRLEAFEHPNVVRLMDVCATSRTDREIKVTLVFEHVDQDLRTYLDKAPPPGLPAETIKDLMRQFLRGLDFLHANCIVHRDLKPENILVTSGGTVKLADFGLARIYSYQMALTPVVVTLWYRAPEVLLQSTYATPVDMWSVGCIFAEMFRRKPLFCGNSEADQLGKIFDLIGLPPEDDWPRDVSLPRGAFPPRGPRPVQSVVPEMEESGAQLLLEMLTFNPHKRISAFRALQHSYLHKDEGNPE
CDK4/D, sequence (P24385 whole entry partner): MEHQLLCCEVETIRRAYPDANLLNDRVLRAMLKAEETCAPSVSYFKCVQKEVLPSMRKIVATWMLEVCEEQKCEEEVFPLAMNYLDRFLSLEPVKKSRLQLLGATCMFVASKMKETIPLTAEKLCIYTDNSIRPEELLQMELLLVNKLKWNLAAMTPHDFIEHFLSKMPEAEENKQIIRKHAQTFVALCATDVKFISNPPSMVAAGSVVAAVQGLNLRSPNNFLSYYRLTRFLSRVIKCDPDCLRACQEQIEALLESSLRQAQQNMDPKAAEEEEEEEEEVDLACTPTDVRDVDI
Experimental: as §1

[7] = test system: Rb-proficient human tumor cell lines (A375, Calu-6, MDA-MB-231, SJSA1, SKUT-1B); experiment: 5-day growth inhibition SRB assay; details: for GI50: Homo sapiens, 120 h
Experimental: Dose–response curves and GI50 bar charts represent the mean ± SEM from three or four independent experiments.
The ability of selected compounds to inhibit cell growth was assessed in a panel of human cancer cell lines using an SRB assay.[45] […] At least three independent experiments were performed. Growth inhibitory GI50 values were calculated using GraphPad Prism software (GraphPad Software, Inc., San Diego, CA).

[8] = target: T4, CDK7/H; experiment: biochemical; details: for inhibition at 10 µM: read-out: CDK7 Inhibition at 10 μM (%)
Experimental: as §1

[9] = target: T2, CDK9/T; experiment: biochemical; details: read-out: CDK9 Inhibition at 10 μM (%)
Experimental: as §1

[10] = target: T5, CDK5 (Homo sapiens, UniProt Q00535); experiment: biochemical; details: read-out: CDK5 Inhibition at 10 μM (%)
T5 sequence (Q00535 whole entry, species assumed): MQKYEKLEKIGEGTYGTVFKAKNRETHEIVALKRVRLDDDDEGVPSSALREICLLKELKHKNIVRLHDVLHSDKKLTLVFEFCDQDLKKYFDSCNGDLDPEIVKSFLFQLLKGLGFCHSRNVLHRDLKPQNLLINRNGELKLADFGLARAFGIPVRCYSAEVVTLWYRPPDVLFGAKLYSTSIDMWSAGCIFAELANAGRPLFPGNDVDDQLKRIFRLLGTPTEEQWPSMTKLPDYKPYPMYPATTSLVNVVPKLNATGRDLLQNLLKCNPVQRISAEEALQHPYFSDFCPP
T5 sequence (Q15078 99-307 partner limits assumed, species assumed): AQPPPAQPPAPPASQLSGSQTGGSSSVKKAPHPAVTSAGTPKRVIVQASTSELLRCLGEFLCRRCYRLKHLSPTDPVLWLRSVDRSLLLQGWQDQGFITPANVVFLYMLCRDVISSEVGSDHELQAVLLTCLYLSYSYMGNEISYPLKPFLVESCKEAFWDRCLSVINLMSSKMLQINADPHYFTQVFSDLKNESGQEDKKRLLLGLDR

[11] = target: T3, Human CDK1/B; experiment: biochemical; details: read-out: CDK1 Inhibition at 10 μM (%)
Experimental: as §1

[12] = target: T5, CDK5; details: read-out: CDK5 Inhibitory Activity IC50; Table 3
[13] = read-out: CDK2 Inhibition IC50, Table 1, ATP 12.5 μM
[14] = read-out: CDK9/T IC50, Table 2, ATP 100 μM
[15] = read-out: CDK1/B IC50, Table 2, ATP 12.5 μM
[16] = read-out: CDK7/H IC50, Table 2, ATP 100 μM
[17] = read-out: CDK2 Inhibitory Activity IC50, Table 3
[18] = read-out: CDK1 Inhibitory Activity IC50, Table 3
[19] = read-out: CDK9 Inhibitory Activity IC50, Table 3
[20] = read-out: CDK7 Inhibitory Activity IC50, Table 3
[21] = read-out: CDK2 Inhibition at 10 μM (%)

Compound: CCC(C)Oc1nc(Nc2ccc(S(N)(=O)=O)cc2)nc2[nH]cnc12 (racemic) [Compound 34]
IC50 ([1]; read-out: CDK2/A IC50, Table 2, ATP 12.5 μM): 1.2 ± 0.5 nM
IC50 [1, 13]: 1 ± 0.5 nM
IC50 [2, 14]: 570 ± 50 nM
IC50 [3, 15]: 97 ± 40 nM
IC50 [4, 16]: 2.8 ± 0.1 µM

Compound: Nc1nc2ncnc-2c[nH]1 [Compound 8, 2-Aminopurine, reference compound]
inhibition at 100 µM ([5]; read-out: CDK2 Inhibition (%) at 100 μM): 4%

Compound: c1ccc(Nc2ncc3nc[nH]c3n2)cc1 [Compound 12, Phenyl-(9H-purin-2-yl)amine]
IC50 [1, 13]: 61000 ± 100 nM

Compound: NS(=O)(=O)c1ccc(Nc2ncc3nc[nH]c3n2)cc1 [Compound 13, 4-(9H-Purin-2-ylamino)benzenesulfonamide]
fold less active/potent than 3 against CDK2 ([1]; compared with 3): ~300 fold
IC50 [1, 13]: 1500 ± 100 nM
IC50 [2, 14]: 38000 ± 11000 nM
IC50 [3, 15]: 15800 ± 1200 nM
inhibition at 100 µM [6]: 12%
IC50 [4, 16]: 75 ± 3 µM

Compound: CC(C)[Si](C#Cc1nc(Nc2ccc(S(N)(=O)=O)cc2)nc2[nH]cnc12)(C(C)C)C(C)C [Compound 40, 4-(6-((Triisopropylsilyl)ethynyl)-9H-purin-2-ylamino)benzenesulfonamide]
IC50 [1, 13]: 17 ± 1 nM

Compound: CC#Cc1nc(Nc2ccccc2)nc2[nH]cnc12 [Compound 48, N-Phenyl-6-(prop-1-yn-1-yl)-9H-purin-2-amine]
IC50 [1, 13]: 6400 ± 400 nM

Compound: C(#Cc1nc(Nc2ccccc2)nc2[nH]cnc12)c1ccccc1 [Compound 49, N-Phenyl-6-(phenylethynyl)-9H-purin-2-amine]
IC50 [1, 13]: 8900 ± 700 nM

Compound: CCc1nc(Nc2ccc(S(N)(=O)=O)cc2)nc2[nH]cnc12 [Compound 52, 4-(6-Ethyl-9H-purin-2-ylamino)benzenesulfonamide]
fold reduction of CDK2-inhibitory activity compared with 30 ([1]; compared with 6-ethoxypurine 30): ~10 fold
IC50 [1, 13]: 220 ± 3 nM

Compound: NS(=O)(=O)c1ccc(Nc2nc(C3CC3)c3nc[nH]c3n2)cc1 [Compound 55, 4-(6-Cyclopropyl-9H-purin-2-ylamino)benzenesulfonamide]
IC50 [1, 13]: 19 ± 1 nM

Compound: NS(=O)(=O)c1ccc(Nc2nc(-c3ccccc3)c3nc[nH]c3n2)cc1 [Compound 70, 4-(6-Phenyl-9H-purin-2-ylamino)benzenesulfonamide]
IC50 [1, 13]: 24 ± 2 nM
IC50 [2, 14]: 570 ± 40 nM
IC50 [3, 15]: 730 ± 3 nM
IC50 [4, 16]: 6.8 ± 0.4 µM

Compound: COc1cccc(-c2nc(Nc3ccc(S(N)(=O)=O)cc3)nc3[nH]cnc23)c1 [Compound 71, 4-(6-(3-Methoxyphenyl)-9H-purin-2-ylamino)benzenesulfonamide]
IC50 [1, 13]: 39 ± 13 nM

Compound: COc1ccc(-c2nc(Nc3ccc(S(N)(=O)=O)cc3)nc3[nH]cnc23)cc1 [Compound 72, 4-(6-(4-Methoxyphenyl)-9H-purin-2-ylamino)benzenesulfonamide]
IC50 [1, 13]: 52 ± 4 nM

Compound: NS(=O)(=O)c1ccc(Nc2nc(-c3cccc(-c4ccccc4)c3)c3nc[nH]c3n2)cc1 [Compound 73, 4-((6-([1,1′-Biphenyl]-3-yl)-9H-purin-2-yl)amino)benzenesulfonamide]
selectivity for CDK2 over CDK1 ([1]; ratio of CDK1 and CDK2 IC50): ~2000 fold
IC50 [1, 13]: 44 ± 12 nM
IC50 [2, 14]: 25000 ± 8000 nM
effect on the growth of cells ([7]; maximal concentration tested 30 μM, 5-day growth assay, GI50 could not be determined): no or limited effects
IC50 [3, 15]: 86000 ± 4000 nM
inhibition at 100 µM [6]: 26%
inhibition at 100 µM ([8]; read-out: CDK7/H % inhibition at 100 μM): 28%

Compound: NS(=O)(=O)c1ccc(Nc2nc(-c3ccc4c(c3)OCO4)c3nc[nH]c3n2)cc1 [Compound 74, 4-(6-(Benzo[d][1,3]dioxol-5-yl)-9H-purin-2-ylamino)benzenesulfonamide]
fold less potent than 70 (CDK2) ([1]; compared with 70): ~20 fold
IC50 [1, 13]: 580 ± 20 nM

Compound: NS(=O)(=O)c1ccc(Nc2nc(-c3cccc4c3oc3ccccc34)c3nc[nH]c3n2)cc1 [Compound 75, 4-(6-(4-Dibenzofuryl)-9H-purin-2-ylamino)benzenesulfonamide]
IC50 [1, 13]: 1400 ± 200 nM

Compound: NS(=O)(=O)c1ccc(Nc2nc(-c3cccc4c3Sc3ccccc3S4)c3nc[nH]c3n2)cc1 [Compound 76]
IC50 [1, 13]: 6700 ± 500 nM

Compound: Nc1cc(OCC2CCCCC2)c2nc[nH]c2n1 [Compound 80, 7-(Cyclohexylmethoxy)-3H-imidazo[4,5-b]pyridin-5-amine]
IC50 [1, 17]: 28400 ± 800 nM

Compound: NS(=O)(=O)c1ccc(Nc2cc(OCC3CCCCC3)c3nc[nH]c3n2)cc1 [Compound 83, 4-((7-(Cyclohexylmethoxy)-3H-imidazo[4,5-b]pyridin-5-yl)amino) benzenesulfonamide]
IC50 [1, 17]: 290 ± 10 nM
IC50 [3, 18]: 11000 ± 2000 nM
inhibition at 10 µM [9]: 42%
inhibition at 10 µM [6]: 23 ± 1%
inhibition at 10 µM [8]: 37%
inhibition at 10 µM [10]: 37%

Compound: Nc1nc(OCC2CCCCC2)c2nn[nH]c2n1 [Compound 86, 7-(Cyclohexylmethoxy)-3H-[1,2,3]triazolo[4,5-d]pyrimidin-5-amine]
IC50 [1, 17]: 18000 ± 1000 nM
inhibition at 10 µM [11]: 21%
inhibition at 10 µM [9]: 16%
inhibition at 10 µM [6]: 6.2%
inhibition at 10 µM [8]: 13%
inhibition at 10 µM [10]: 13%

Compound: Nc1nc(OCC2CCCCC2)c2cn[nH]c2n1 [Compound 87, 4-(Cyclohexylmethoxy)-1H-pyrazolo[3,4-d]pyrimidin-6-amine]
IC50 [1, 17]: 16000 ± 4000 nM
inhibition at 10 µM [11]: 32%
inhibition at 10 µM [9]: 16%
inhibition at 10 µM [6]: 0%
inhibition at 10 µM [8]: 16%
inhibition at 10 µM [10]: 14%

Compound: NS(=O)(=O)c1ccc(Nc2nc(OCC3CCCCC3)c3nn[nH]c3n2)cc1 [Compound 90, 4-((7-(Cyclohexylmethoxy)-3H-[1,2,3]triazolo[4,5-d]pyrimidin-5-yl)amino) benzenesulfonamide]
IC50 [1, 17]: 2 ± 0.1 nM
IC50 [2, 19]: 750 ± 30 nM
IC50 [3, 18]: 750 ± 60 nM
IC50 [12]: 3.3 ± 0.2 µM
IC50 [4, 20]: 6.8 ± 0.7 µM

Compound: NS(=O)(=O)c1ccc(Nc2nc(OCC3CCCCC3)c3cn[nH]c3n2)cc1 [Compound 91, 4-((4-(Cyclohexylmethoxy)-1H-pyrazolo[3,4-d]pyrimidin-6-yl)amino)benzenesulfonamide]
IC50 [2, 19]: 4600 ± 200 nM
GI50 [7]: 1 to 22 µM
IC50 [12]: 5.9 ± 0.1 µM
IC50 [4, 20]: 7 ± 0.3 µM

inhibition at 10 µM ([5]; read-out: CDK2 Inhibition (%) at 10 uM): 41 ± 10%
inhibition at 100 µM ([5]; read-out: CDK2 Inhibition (%), value determined at 100 μM): 41%
inhibition at 10 µM [11]: 11%
inhibition at 10 µM [9]: 0%
inhibition at 10 µM [6]: 5.6%
inhibition at 10 µM [8]: 5.1%
inhibition at 10 µM [10]: 12%
Compound: Nc1nc(OCC2CCCCC2)c2cc[nH]c2n1 [Compound 93, 4-(Cyclohexylmethoxy)-7H-pyrrolo[2,3-d]pyrimidin-2-amine]

Compound: NS(=O)(=O)c1ccc(Nc2nc(OCC3CCCCC3)c3cc[nH]c3n2)cc1 [Compound 98, 4-((4-(Cyclohexylmethoxy)-7H-pyrrolo[2,3-d]pyrimidin-2-yl)amino)benzenesulfonamide]
IC50 [1, 17]: 26 ± 1 nM
IC50 [2, 19]: 1000 ± 200 nM
GI50 [7]: 1 to 22 µM
IC50 [3, 18]: 2700 ± 200 nM
IC50 [12]: 4.4 ± 0.6 µM
IC50 [4, 20]: 4.1 ± 0.2 µM

inhibition at 10 µM [5, 21]: 10%
Compound: c1ccc(Nc2cc(OCC3CCCCC3)n3ccnc3n2)cc1 [Compound 101, 5-Cyclohexylmethoxy-7-anilinoimidazo[1,2-a]pyrimidine]

inhibition at 10 µM [5, 21]: 36%
Compound: NS(=O)(=O)c1ccc(Nc2cc(OCC3CCCCC3)n3ccnc3n2)cc1 [Compound 102, 5-Cyclohexylmethoxy-7-(4′-sulfamoylanilino)imidazo[1,2-a]pyrimidine]
